IC50 and Activity data for two compounds are collected here from ChEMBL document CHEMBL5678818, “Discovery of potent SOS1 inhibitors that block RAS activation via disruption of the RAS-SOS1 interaction” (Proc Natl Acad Sci U S A, 2019).

The target in test [1] is T1, Son of sevenless homolog 1 (Homo sapiens, UniProt Q07889).
T1 sequence (Q07889 whole entry): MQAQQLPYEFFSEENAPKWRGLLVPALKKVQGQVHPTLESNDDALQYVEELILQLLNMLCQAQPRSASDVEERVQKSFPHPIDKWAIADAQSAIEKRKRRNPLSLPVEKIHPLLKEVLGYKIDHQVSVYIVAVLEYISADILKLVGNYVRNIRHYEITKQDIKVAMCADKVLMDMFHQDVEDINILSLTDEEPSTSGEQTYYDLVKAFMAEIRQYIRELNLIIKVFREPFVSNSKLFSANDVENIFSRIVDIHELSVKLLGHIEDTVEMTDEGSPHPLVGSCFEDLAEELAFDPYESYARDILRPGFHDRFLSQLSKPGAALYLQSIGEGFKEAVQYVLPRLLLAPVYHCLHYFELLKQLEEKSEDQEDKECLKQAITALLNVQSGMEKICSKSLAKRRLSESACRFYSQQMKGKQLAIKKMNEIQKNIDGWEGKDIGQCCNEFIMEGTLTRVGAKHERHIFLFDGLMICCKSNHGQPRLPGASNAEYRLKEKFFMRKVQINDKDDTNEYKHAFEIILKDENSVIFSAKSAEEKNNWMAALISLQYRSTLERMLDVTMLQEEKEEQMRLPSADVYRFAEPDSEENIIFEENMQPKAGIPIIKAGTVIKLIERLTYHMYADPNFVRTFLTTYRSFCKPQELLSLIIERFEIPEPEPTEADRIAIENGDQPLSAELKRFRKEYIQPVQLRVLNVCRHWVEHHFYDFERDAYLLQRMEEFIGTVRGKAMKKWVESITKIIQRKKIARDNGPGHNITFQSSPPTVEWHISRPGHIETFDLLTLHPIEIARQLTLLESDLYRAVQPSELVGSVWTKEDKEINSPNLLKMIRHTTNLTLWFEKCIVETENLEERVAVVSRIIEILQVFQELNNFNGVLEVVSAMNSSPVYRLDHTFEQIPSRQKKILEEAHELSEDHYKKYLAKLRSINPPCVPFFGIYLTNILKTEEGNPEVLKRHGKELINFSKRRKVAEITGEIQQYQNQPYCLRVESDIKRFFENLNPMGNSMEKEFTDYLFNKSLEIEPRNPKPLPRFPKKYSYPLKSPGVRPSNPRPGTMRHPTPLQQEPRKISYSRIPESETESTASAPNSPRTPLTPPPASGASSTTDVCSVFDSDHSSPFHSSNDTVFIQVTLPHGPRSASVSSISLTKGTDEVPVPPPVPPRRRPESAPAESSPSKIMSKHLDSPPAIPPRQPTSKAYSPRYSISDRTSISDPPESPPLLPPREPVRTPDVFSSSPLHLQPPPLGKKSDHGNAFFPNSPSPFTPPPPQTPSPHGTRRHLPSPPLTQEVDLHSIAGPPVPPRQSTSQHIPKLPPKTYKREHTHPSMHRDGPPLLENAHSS
Kind of test: Inhibition of SOS1 in human K562 cells assessed as reduction in pERK level incubated for 60 mins by HTRF analysis. Format: cell-based. For orientation: TR-FRET usually uses a lanthanide donor and a delayed reading to cut background.

The target in test [2] is T2, Serine/threonine-protein kinase BRSK2 (Homo sapiens) (UniProt Q8IWQ3).
T2 sequence (whole entry): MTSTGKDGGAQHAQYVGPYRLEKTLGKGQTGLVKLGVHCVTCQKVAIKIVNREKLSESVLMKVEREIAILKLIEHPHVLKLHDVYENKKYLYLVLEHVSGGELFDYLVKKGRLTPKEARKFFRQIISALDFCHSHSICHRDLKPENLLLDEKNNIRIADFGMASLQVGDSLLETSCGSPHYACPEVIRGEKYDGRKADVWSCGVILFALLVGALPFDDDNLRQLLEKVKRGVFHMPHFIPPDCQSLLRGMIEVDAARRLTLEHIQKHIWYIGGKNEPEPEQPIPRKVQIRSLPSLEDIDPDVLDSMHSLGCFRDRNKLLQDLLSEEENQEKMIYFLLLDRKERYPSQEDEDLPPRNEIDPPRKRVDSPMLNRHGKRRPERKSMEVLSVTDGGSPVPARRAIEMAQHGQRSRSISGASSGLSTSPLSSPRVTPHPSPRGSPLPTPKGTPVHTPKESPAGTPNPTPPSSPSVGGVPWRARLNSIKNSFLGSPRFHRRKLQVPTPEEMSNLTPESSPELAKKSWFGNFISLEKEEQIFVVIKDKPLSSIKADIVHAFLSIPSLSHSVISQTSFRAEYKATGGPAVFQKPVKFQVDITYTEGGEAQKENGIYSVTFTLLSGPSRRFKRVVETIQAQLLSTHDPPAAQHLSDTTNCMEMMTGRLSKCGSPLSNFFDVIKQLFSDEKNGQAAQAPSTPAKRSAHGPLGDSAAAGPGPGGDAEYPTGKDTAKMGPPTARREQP
Kind of test: Inhibition of BRSK2 (unknown origin) assessed as residual activity at 100 nM by KINOMEscan analysis relative to control.

In test [3] the target is T3, Serine/threonine-protein kinase 17A (Homo sapiens) (UniProt Q9UEE5).
T3 sequence (whole entry): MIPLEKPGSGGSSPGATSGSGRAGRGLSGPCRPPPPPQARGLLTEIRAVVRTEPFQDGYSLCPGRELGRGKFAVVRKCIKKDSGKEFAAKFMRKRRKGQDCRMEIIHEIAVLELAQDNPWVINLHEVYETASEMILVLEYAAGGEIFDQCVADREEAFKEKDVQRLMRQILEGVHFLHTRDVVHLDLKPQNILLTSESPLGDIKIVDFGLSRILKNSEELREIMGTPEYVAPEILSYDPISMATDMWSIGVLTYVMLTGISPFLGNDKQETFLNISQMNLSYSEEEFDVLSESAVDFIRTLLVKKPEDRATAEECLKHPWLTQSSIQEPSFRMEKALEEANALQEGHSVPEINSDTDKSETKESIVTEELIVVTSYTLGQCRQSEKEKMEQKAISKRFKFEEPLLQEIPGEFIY
As to the kind of experiment: Inhibition of DRAK1 (unknown origin) assessed as residual activity at 100 nM by KINOMEscan analysis relative to control.

The target of test [4] is G protein-coupled receptor kinase 4 (Homo sapiens) (UniProt P32298). As to the kind of experiment: Inhibition of GRK4 (unknown origin) assessed as residual activity at 100 nM by KINOMEscan analysis relative to control.
Test [5] addresses Protein kinase C eta type (Homo sapiens) (UniProt P24723). As to the kind of experiment: Inhibition of PRKCH (unknown origin) assessed as residual activity at 100 nM by KINOMEscan analysis relative to control.
Test [6] has as its target Serine/threonine-protein kinase 32A (Homo sapiens) (UniProt Q8WU08). As to the kind of experiment: Inhibition of YANK1 (unknown origin) assessed as residual activity at 100 nM by KINOMEscan analysis relative to control.
The target in test [7] is Serine/threonine-protein kinase 25 (Homo sapiens) (UniProt O00506). Kind of test: Inhibition of YSK1 (unknown origin) assessed as residual activity at 100 nM by KINOMEscan analysis relative to control.

The structures appear in SMILES notation.

Serine/threonine-protein kinase 32A (Homo sapiens), sequence (Q8WU08 whole entry): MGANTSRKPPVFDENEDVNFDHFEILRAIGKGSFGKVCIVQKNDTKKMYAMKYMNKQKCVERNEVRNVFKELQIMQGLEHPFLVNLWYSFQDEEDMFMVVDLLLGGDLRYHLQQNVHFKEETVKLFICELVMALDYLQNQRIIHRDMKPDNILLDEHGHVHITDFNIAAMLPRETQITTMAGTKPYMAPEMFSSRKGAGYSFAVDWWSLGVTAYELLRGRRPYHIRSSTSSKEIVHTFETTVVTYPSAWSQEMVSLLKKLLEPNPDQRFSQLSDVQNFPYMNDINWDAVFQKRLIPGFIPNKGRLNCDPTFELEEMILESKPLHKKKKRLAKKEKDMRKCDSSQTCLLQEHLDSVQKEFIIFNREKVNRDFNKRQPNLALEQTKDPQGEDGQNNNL
Protein kinase C eta type (Homo sapiens), sequence (P24723 whole entry): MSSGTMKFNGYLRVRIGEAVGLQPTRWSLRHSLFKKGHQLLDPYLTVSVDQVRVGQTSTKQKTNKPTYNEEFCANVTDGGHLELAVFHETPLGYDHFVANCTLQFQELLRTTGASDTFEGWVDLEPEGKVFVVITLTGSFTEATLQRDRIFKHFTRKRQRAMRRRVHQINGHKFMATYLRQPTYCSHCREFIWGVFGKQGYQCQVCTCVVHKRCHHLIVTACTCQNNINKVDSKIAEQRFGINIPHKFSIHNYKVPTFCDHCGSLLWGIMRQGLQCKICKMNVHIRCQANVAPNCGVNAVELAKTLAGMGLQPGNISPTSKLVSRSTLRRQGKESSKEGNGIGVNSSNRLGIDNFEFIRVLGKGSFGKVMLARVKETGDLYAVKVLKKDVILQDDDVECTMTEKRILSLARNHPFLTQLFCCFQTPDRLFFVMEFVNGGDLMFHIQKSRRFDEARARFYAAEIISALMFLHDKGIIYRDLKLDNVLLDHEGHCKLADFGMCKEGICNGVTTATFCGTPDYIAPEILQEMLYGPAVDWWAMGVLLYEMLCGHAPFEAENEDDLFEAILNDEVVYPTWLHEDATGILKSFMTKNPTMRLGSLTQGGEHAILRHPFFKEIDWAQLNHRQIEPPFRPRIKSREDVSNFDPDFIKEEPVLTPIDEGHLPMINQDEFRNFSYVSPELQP
G protein-coupled receptor kinase 4 (Homo sapiens), sequence (P32298 whole entry, looked up): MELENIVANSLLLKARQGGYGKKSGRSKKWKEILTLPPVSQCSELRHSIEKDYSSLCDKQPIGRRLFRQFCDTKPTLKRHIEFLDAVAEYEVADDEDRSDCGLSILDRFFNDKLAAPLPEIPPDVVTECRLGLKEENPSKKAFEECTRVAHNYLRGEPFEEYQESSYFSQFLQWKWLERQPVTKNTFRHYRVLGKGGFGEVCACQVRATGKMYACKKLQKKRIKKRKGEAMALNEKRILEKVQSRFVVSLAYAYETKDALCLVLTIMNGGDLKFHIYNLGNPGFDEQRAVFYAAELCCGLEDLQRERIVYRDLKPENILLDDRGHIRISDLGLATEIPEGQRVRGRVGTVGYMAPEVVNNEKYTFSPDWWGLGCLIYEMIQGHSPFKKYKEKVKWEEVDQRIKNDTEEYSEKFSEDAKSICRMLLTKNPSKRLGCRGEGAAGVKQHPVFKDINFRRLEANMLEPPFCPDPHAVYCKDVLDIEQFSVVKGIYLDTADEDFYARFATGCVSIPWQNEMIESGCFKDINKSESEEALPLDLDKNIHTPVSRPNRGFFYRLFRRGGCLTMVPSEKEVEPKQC
Serine/threonine-protein kinase 25 (Homo sapiens), sequence (O00506 whole entry, looked up): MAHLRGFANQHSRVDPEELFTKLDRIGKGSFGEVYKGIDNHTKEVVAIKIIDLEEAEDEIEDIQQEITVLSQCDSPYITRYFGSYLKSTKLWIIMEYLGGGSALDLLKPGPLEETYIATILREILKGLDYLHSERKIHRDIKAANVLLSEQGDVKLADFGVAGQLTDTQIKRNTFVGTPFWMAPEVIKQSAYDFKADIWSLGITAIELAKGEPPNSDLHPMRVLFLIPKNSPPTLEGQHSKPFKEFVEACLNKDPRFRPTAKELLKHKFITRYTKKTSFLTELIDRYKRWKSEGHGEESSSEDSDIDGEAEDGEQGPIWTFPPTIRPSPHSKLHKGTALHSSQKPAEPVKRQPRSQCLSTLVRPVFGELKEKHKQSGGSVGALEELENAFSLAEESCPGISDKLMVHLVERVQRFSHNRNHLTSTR

As a reminder, the IC50 is the point on the concentration scale where inhibition reaches its midpoint. In the case of `COc1cc2nc(C)nc(NC(C)c3ccc(-c4cnc5n4CCC5)s3)c2cc1OC` (configuration not stated), in test [1], the half-inhibitory concentration (IC50) is 1160 nM.
For `COc1cc2ncnc(N[C@H](C)c3cccc4ccccc34)c2cc1OC`, the Activity in test [2] was 100%; in test [3], 100%; in test [4], 62%; in test [5], 90%; in test [6], 61%; in test [7], 100%.
